Test results from patent US20160083400A1, “TRICYCLIC GUANIDINE DERIVATIVE” (Sunovion Pharmaceuticals Inc., priority 2014, published 2016).

Target: PDE1B (Homo sapiens, UniProt Q01064)
Assay: In vitro HTRF PDE1 inhibition assay (PDE1B)
Assay type: biochemical
Conditions: 100 nM cyclic GMP, calmodulin, 45 minutes at 37° C.

PDE1B, sequence (Q01064 whole entry): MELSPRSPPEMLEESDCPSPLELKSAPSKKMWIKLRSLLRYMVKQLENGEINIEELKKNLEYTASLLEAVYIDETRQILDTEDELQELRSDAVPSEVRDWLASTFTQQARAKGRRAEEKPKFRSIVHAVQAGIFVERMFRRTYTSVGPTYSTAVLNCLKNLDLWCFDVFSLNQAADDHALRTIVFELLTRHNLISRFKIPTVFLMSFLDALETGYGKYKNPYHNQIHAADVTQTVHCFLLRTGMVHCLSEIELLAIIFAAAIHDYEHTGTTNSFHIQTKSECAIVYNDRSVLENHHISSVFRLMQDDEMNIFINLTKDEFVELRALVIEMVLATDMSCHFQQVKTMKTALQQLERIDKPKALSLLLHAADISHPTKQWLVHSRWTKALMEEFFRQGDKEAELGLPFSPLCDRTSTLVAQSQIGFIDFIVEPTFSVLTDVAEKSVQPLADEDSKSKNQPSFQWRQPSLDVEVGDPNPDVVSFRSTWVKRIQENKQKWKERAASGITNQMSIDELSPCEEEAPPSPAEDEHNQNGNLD

SMILES | IC50 [µM]
COc1cc(C2CCn3c(nc4c(cnn4C(C)C)c3=O)N2)ccc1F (stereo not drawn) [Example 11] | < 1
Cc1ccc(C2CCn3c(nc4c(cnn4C(C)C)c3=O)N2)cn1 (stereo not drawn) [Example 12] | 1 to 10
O=c1c2cnn(C3CCOCC3)c2nc2n1CCC(Cc1ccc(Cl)cc1)N2 (stereo not drawn) [Example 17] | < 1
Cc1ncc(C2CCn3c(nc4c(cnn4C(C)C)c3=O)N2)cn1 (stereo not drawn) [Example 25] | 1 to 10
CC(C)n1ncc2c(=O)n3c(nc21)NC(c1cccc(Cl)c1)CC3 (stereo not drawn) [Example 30] | < 1
CC(C)n1ncc2c(=O)n3c(nc21)NC(c1ccccc1Cl)CC3 (stereo not drawn) [Example 31] | < 1
CC(C)n1ncc2c(=O)n3c(nc21)NC(c1ccccc1)CC3 (stereo not drawn) [Example 32] | < 1
Cc1ccc(CC2CCn3c(nc4c(cnn4C(C)C)c3=O)N2)cn1 (stereo not drawn) [Example 33] | 1 to 10
CCn1ncc2c(=O)n3c(nc21)NC(c1ccc(Cl)cc1)CC3 (stereo not drawn) [Example 34] | < 1
O=c1c2cnn(CC3CC3)c2nc2n1CCC(c1ccc(Cl)cc1)N2 (stereo not drawn) [Example 37] | < 1
O=c1c2cnn(C3CCC(F)(F)CC3)c2nc2n1CCC(c1ccc(Cl)cc1)N2 (stereo not drawn) [Example 39] | 1 to 10
O=c1c2cnn(C3CCC3)c2nc2n1CCC(c1ccc(Cl)cc1)N2 (stereo not drawn) [Example 44] | < 1
CC(C)(C)n1ncc2c(=O)n3c(nc21)NC(c1ccc(Cl)cc1)CC3 (stereo not drawn) [Example 45] | 10 to 100
CC(C)c1ncc2c(=O)n3c(nn12)NC(c1ccc(Cl)cn1)CC3 (stereo not drawn) [Example 51] | < 1
COc1ccc(CC2CCn3c(nn4c(C5CCOCC5)ncc4c3=O)N2)cc1 (stereo not drawn) [Example 58] | < 1
O=c1c2cnc(C3CCOCC3)n2nc2n1CCC(Cc1ccc(Cl)cc1)N2 (stereo not drawn) [Example 59] | < 1
O=c1c2cnc(C3CCCC3)n2nc2n1CCC(c1ccc(Cl)cc1)N2 (stereo not drawn) [Example 60] | < 1
O=c1c2cnc(C3CCCC3)n2nc2n1CC[C@@H](c1ccc(Cl)cc1)N2 [Example 62] | < 1
O=c1c2cnc(C3CCC3)n2nc2n1CCC(c1ccc(C(F)(F)F)cc1)N2 (stereo not drawn) [Example 64] | < 1

SMILES | IC50 [µM]
O=c1c2cnc(C3CC3)n2nc2n1CCC(c1ccc(Cl)cc1)N2 (stereo not drawn) [Example 67] | < 1
Cc1cnc(CC2CCn3c(nc4c(cnn4C4CCCC4)c3=O)N2)nc1 (stereo not drawn) [Example 70, 1-Cyclopentyl-8-[(5-methyl-2-pyrimidinyl)methyl]-6,7,8,10-tetrahydropyrazolo[3,4-d]pyrimido[1,2-a]pyrimidin-4(1H)-one] | 1 to 10
Cc1ncc(CC2CCn3c(nc4c(cnn4C(C)C)c3=O)N2)cn1 (stereo not drawn) [Example 72] | 1 to 10
Cc1cnc(CC2CCn3c(nc4c(cnn4C(C)C)c3=O)N2)nc1 (stereo not drawn) [Example 73] | 1 to 10
N#Cc1ccc(C2CCn3c(nn4c(C5CCOCC5)ncc4c3=O)N2)cc1 (stereo not drawn) [Example 93] | < 1
O=c1c2cnc(C3CCOCC3)n2nc2n1CC[C@@H](c1ccc(Cl)cc1C(F)(F)F)N2 [Example 123] | 1 to 10
O=c1c2cnc(C3CCOCC3)n2nc2n1CC[C@@H](c1ccc(Cl)cc1F)N2 [Example 124] | 1 to 10
O=c1c2cnc(C3CCOCC3)n2nc2n1CC[C@H](c1ccc(Cl)cc1F)N2 [Example 125] | < 1
O=c1c2cnc(C3CCOCC3)n2nc2n1CC[C@@H](c1cccc(Cl)c1)N2 [Example 126] | < 1
COc1cccc([C@H]2CCn3c(nn4c(C5CCOCC5)ncc4c3=O)N2)c1 [Example 128] | < 1
COc1cccc([C@@H]2CCn3c(nn4c(C5CCOCC5)ncc4c3=O)N2)c1 [Example 129] | < 1
COc1cncc([C@H]2CCn3c(nn4c(C5CCCC5)ncc4c3=O)N2)c1 [Example 130] | < 1
Cc1cncc([C@H]2CCn3c(nn4c(C5CCCC5)ncc4c3=O)N2)c1 [Example 132] | < 1
Cc1cncc([C@@H]2CCn3c(nn4c(C5CCCC5)ncc4c3=O)N2)c1 [Example 133] | < 1
O=c1c2cnc(C3CCCC3)n2nc2n1CC[C@H](c1cncc(Cl)c1)N2 [Example 135] | < 1
CC(C)c1ncc2n1NC1=N[C@@H](c3ccc(Cl)cc3)CN1C2=O [Example 137, (2S)-2-(4-Chlorophenyl)-8-isopropyl-2,10-dihydro-3H,5H-diimidazo[2,1-c:5′,1′-f][1,2,4]triazin-5-one] | < 1
COc1ccc([C@@H]2Cn3c(nn4c(C5CCOCC5)ncc4c3=O)N2)cc1 [Example 140] | < 1
CC(C)c1onc2c(=O)n3c(nc12)N[C@@H](c1ccc(Cl)cc1)CC3 [Example 152, (6R)-6-(4-Chlorophenyl)-3-isopropyl-4,6,7,8-tetrahydro-10H-[1,2]oxazolo[4,3-d]pyrimido[1,2-a]pyrimidin-10-one] | 1 to 10

Next, values leading:

IC50 [µM] | SMILES
1 to 10 | O=c1c2cnn(C3CCCC3)c2nc2n1CCC(c1ccncc1)N2 (stereo not drawn) [Example 3]
10 to 100 | COc1cccc(C2CCn3c(nc4c(cnn4C4CCCC4)c3=O)N2)c1 (stereo not drawn) [Example 5]
< 1 | COc1ccc(CC2CCn3c(nc4c(cnn4C(C)C)c3=O)N2)cc1 (stereo not drawn) [Example 13]
< 1 | O=c1c2cnn(C3CC3)c2nc2n1CCC(c1ccc(Cl)cc1)N2 (stereo not drawn) [Example 15]
< 1 | COc1ccc(CC2CCn3c(nc4c(cnn4C4CCOCC4)c3=O)N2)cc1 (stereo not drawn) [Example 16]
1 to 10 | Cc1cc(C2CCn3c(nc4c(cnn4C(C)C)c3=O)N2)ccn1 (stereo not drawn) [Example 26]
1 to 10 | CC(C)n1ncc2c(=O)n3c(nc21)N[C@H](c1ccc(Cl)cc1)CC3 [Example 28]
< 1 | CCCn1ncc2c(=O)n3c(nc21)NC(c1ccc(Cl)cc1)CC3 (stereo not drawn) [Example 35]
< 1 | CCC(CC)n1ncc2c(=O)n3c(nc21)NC(c1ccc(Cl)cc1)CC3 (stereo not drawn) [Example 36]
< 1 | O=c1c2cnn(CC(F)(F)F)c2nc2n1CCC(c1ccc(Cl)cc1)N2 (stereo not drawn) [Example 38]
< 1 | O=c1c2cnn(C3CCCC3)c2nc2n1CC[C@H](c1ccc(Cl)cc1)N2 [Example 40]
1 to 10 | O=c1c2cnn(C3CCCC3)c2nc2n1CC[C@@H](c1ccc(Cl)cc1)N2 [Example 41]
1 to 10 | Cc1ccc(CC2CCn3c(nc4c(cnn4C4CCCC4)c3=O)N2)cn1 (stereo not drawn) [Example 42]
< 1 | O=c1c2cnn(C3CCOCC3)c2nc2n1CCC(c1ccc(Cl)cc1)N2 (stereo not drawn) [Example 43]
< 1 | COc1cccc(C2CCn3c(nn4c(C(C)C)ncc4c3=O)N2)c1 (stereo not drawn) [Example 47]
< 1 | COc1cc(C2CCn3c(nn4c(C(C)C)ncc4c3=O)N2)ccc1F (stereo not drawn) [Example 48]
1 to 10 | CC(C)c1ncc2c(=O)n3c(nn12)N[C@H](c1ccc(Cl)cc1)CC3 [Example 49]
< 1 | CC(C)c1ncc2c(=O)n3c(nn12)NC(c1ccc(C(F)(F)F)cc1)CC3 (stereo not drawn) [Example 50]
< 1 | CC(C)c1ncc2c(=O)n3c(nn12)NC(C1CCCCC1)CC3 (stereo not drawn) [Example 53]
< 1 | COc1ccc(C2CCn3c(nn4c(C(C)C)ncc4c3=O)N2)cc1 (stereo not drawn) [Example 54]
< 1 | O=c1c2cnc(C3CCOCC3)n2nc2n1CCC(c1cccc(Cl)c1)N2 (stereo not drawn) [Example 56]
< 1 | O=c1c2cnc(C3CCC3)n2nc2n1CCC(c1ccc(Cl)cc1)N2 (stereo not drawn) [Example 63]

IC50 [µM] | SMILES
< 1 | O=c1c2cnc(C3CCC3)n2nc2n1CCC(Cc1ccc(Cl)cc1)N2 (stereo not drawn) [Example 66]
< 1 | CC(C)(C)c1ncc2c(=O)n3c(nn12)NC(c1ccc(Cl)cc1)CC3 (stereo not drawn) [Example 68]
1 to 10 | Cc1ncc(CC2CCn3c(nc4c(cnn4C4CCCC4)c3=O)N2)cn1 (stereo not drawn) [Example 71]
< 1 | O=c1c2cnn(C3CCOCC3)c2nc2n1CC(c1ccc(Cl)cc1)N2 (stereo not drawn) [Example 75]
< 1 | O=c1c2cnn(C3CCOCC3)c2nc2n1CC(c1ccc(F)cc1)N2 (stereo not drawn) [Example 76]
< 1 | COc1ccc([C@H]2CCn3c(nn4c(C(C)C)ncc4c3=O)N2)cc1 [Example 85]
< 1 | N#Cc1ccc(C2Cn3c(nc4c(cnn4C4CCOCC4)c3=O)N2)cc1 (stereo not drawn) [Example 86, 4-[4-Oxo-1-(tetrahydro-2H-pyran-4-yl)-4,6,7,8-tetrahydro-1H-imidazo[1,2-a]pyrazolo[3,4-d]pyrimidin-7-yl]benzonitrile]
< 1 | CC(C)c1ncc2c(=O)n3c(nn12)NC(c1ccc(C#N)cc1)CC3 (stereo not drawn) [Example 91]
< 1 | CC(C)c1ncc2c(=O)n3c(nn12)NC(c1ccc(C#N)cn1)CC3 (stereo not drawn) [Example 92]
< 1 | N#Cc1cccc(C2CCn3c(nn4c(C5CCOCC5)ncc4c3=O)N2)c1 (stereo not drawn) [Example 94]
< 1 | N#Cc1ccc(C2CCn3c(nn4c(C5CCC5)ncc4c3=O)N2)cc1 (stereo not drawn) [Example 95]
< 1 | Cc1ccc([C@@H]2CN3C(=O)c4cnc(C(C)C)n4NC3=N2)cc1 [Example 97, (2R)-8-Isopropyl-2-(4-methylphenyl)-2,10-dihydro-3H,5H-diimidazo[2,1-c:5′,1′-f][1,2,4]triazin-5-one]
< 1 | O=c1c2cnc(C3CCOCC3)n2nc2n1CC[C@H](c1ccc(Cl)cc1C(F)(F)F)N2 [Example 122]
< 1 | O=c1c2cnc(C3CCOCC3)n2nc2n1CC[C@H](c1cccc(Cl)c1)N2 [Example 127]
< 1 | COc1cncc([C@@H]2CCn3c(nn4c(C5CCCC5)ncc4c3=O)N2)c1 [Example 131]
< 1 | O=c1c2cnc(C3CCCC3)n2nc2n1CC[C@@H](c1cncc(Cl)c1)N2 [Example 134]
< 1 | CC(C)c1ncc2n1NC1=N[C@H](c3ccc(Cl)cc3)CN1C2=O [Example 136, (2R)-2-(4-Chlorophenyl)-8-isopropyl-2,10-dihydro-3H,5H-diimidazo[2,1-c:5′,1′-f][1,2,4]triazin-5-one]
< 1 | O=c1c2cnc(C3CCOCC3)n2nc2n1C[C@@H](c1ccc(Cl)cc1)N2 [Example 138]
< 1 | CC(C)n1ncc2c(=O)n3c(nc21)N[C@H](c1ccc(Cl)cc1)C3 [Example 143]
< 1 | COc1ccc([C@H]2Cn3c(nc4c(cnn4C(C)C)c3=O)N2)cc1 [Example 146]
1 to 10 | O=c1c2cnn(C3CCOCC3)c2nc2n1C[C@@H](c1ccc(Cl)cc1)N2 [Example 147]
< 1 | O=c1c2cnn(C3CCOCC3)c2nc2n1C[C@H](c1ccc(Cl)cc1)N2 [Example 148]
